Data taken from patent US9938292B2 (GUANGDONG ZHONGSHENG PHARMACEUTICAL CO., LTD, priority 2014, dated 2018).

tested on: Hedgehog signaling pathway; assay: Gli-Luc luciferase reporter gene assay in C3H10T1/2/Gli-Luc cells under Shh-N stimulation; type: cell-based; conditions: 24 h, luciferase RLU, read-out: biological activity: IC50 of the inhibitory activities of compounds on the hedgehog pathway
Summary of the method: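 IC50 derived by curve fitting of luciferase RLU against log compound concentration. Stable C3H10T1/2/Gli-Luc cells, seeded overnight, were co-treated 24 h with serially diluted compound (7 points, duplicate wells) and 30 nM Shh-N-containing HEK293 conditioned medium before lysis and luminescence readout.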

| IC50 | SMILES |
| --- | --- |
| ≤ 0.05 µM | COc1c(-c2cnc(N3C[C@@H](C)O[C@@H](C)C3)cn2)cnc2c(-c3ccc(C#N)cc3)cccc12 [Embodiment 177] |

same assay, conditions: Mus musculus, C3H 10T1/2, 24 h, luciferase RLU, read-out: biological activity: IC50 of the inhibitory activities of compounds on the hedgehog pathway

| IC50 | SMILES |
| --- | --- |
| ≤ 0.05 µM | COc1c(-c2ccc(N3C[C@@H](C)N(C(=O)c4cncc(C)c4)[C@@H](C)C3)cc2)cnc2c(-c3ccc(C#N)cc3)cccc12 [Embodiment 203] |
| ≤ 0.05 µM | CCC(=O)N1[C@H](C)CN(c2ccc(-c3cnc4c(-c5ccc(C#N)cc5)cccc4c3OC)cn2)C[C@@H]1C [Embodiment 204] |
| ≤ 0.05 µM | COc1c(-c2ccc(N3C[C@@H](C)N(c4nccs4)[C@@H](C)C3)nc2)cnc2c(-c3ccc(C#N)cc3)cccc12 [Embodiment 206, 4-(3-(6-((3S,5R)-3,5-dimethyl-4-(thiazol-2-yl)piperazin-1-yl)pyridin-3-yl)-4-methoxyquinolin-8-yl)benzonitrile] |
| 0.1 to 0.5 µM | COc1c(N2CCN(C(=O)Cc3ccncc3)CC2)cnc2c(-c3ccc(C#N)cc3)cccc12 [Embodiment 207, 4-(4-methoxy-3-(4-(2-(pyridin-4-yl)acetyl)piperazin-1-yl)quinolin-8-yl)benzonitrile] |
| 0.1 to 0.5 µM | COc1c(N2CCNCC2)cnc2c(-c3ccc(C#N)cc3)cccc12 [Embodiment 208] |
| ≤ 0.05 µM | COc1c(N2CCN(C(=O)Nc3ccncc3)CC2)cnc2c(-c3ccc(C#N)cc3)cccc12 [Embodiment 209] |
| ≤ 0.05 µM | COc1c(N2CCN(C(=O)NC3CCCCC3)CC2)cnc2c(-c3ccc(C#N)cc3)cccc12 [Embodiment 210] |
| ≤ 0.05 µM | COc1c(N2CCN(C(=O)Nc3cccc(C)c3)CC2)cnc2c(-c3ccc(C#N)cc3)cccc12 [Embodiment 211] |
| ≤ 0.05 µM | COc1c(N2CCN(C(=O)NC3CCOCC3)CC2)cnc2c(-c3ccc(C#N)cc3)cccc12 [Embodiment 212] |
| ≤ 0.05 µM | COc1c(N2CCN(C(=O)N(C)C3CCOCC3)CC2)cnc2c(-c3ccc(C#N)cc3)cccc12 [Embodiment 213] |
| ≤ 0.05 µM | COc1c(N2CCN(C(=O)CC(C)(C)O)CC2)cnc2c(-c3ccc(C#N)cc3)cccc12 [Embodiment 214] |
| 0.1 to 0.5 µM | COc1c(N2CCN(C(C)=O)CC2)cnc2c(-c3ccc(C#N)cc3)cccc12 [Embodiment 215] |
| 0.1 to 0.5 µM | COc1c(N2CCN(C(=O)CC3CCOCC3)CC2)cnc2c(-c3ccc(C#N)cc3)cccc12 [Embodiment 216] |
| 0.1 to 0.5 µM | COc1c(N2CCN(c3cc(C)nc(C)c3)CC2)cnc2c(-c3ccc(C#N)cc3)cccc12 [Embodiment 217, 4-(3-(4-(2,6-dimethylpyridin-4-yl)piperazin-1-yl)-4-methoxyquinolin-8-yl)benzonitrile] |
| ≤ 0.05 µM | CC(C)(O)c1ccc(N2CCN(c3cnc4c(-c5ccc(C#N)cc5)cccc4c3C(F)(F)F)CC2)nc1 [Embodiment 218, 4-(3-(4-(5-(2-hydroxypropan-2-yl)pyridin-2-yl)piperazin-1-yl)-4-(trifluoromethyl)quinolin-8-yl)benzonitrile] |
| ≤ 0.05 µM | CC1CN(c2cnc3c(-c4ccc(C#N)cc4)cccc3c2Br)CCN1c1ccc(C(C)(C)O)cn1 (stereo not shown) [Embodiment 219, 4-(4-bromo-3-(4-(5-(2-hydroxypropan-2-yl)pyridin-2-yl)-3-methylpiperazin-1-yl)quinolin-8-yl)benzonitrile] |
| ≤ 0.05 µM | COc1c(N2CCN(c3ccc(C(C)(C)O)cn3)CC2)cnc2c(-c3ccc(C#N)cc3)cccc12 [Embodiment 220, 4-(3-(4-(5-(2-hydroxypropan-2-yl)pyridin-2-yl)piperazin-1-yl)-4-methoxyquinolin-8-yl)benzonitrile] |
| ≤ 0.05 µM | COc1c(N2CCN(c3cnc(C(C)(C)O)cn3)CC2)cnc2c(-c3ccc(C#N)cc3)cccc12 [Embodiment 221] |

Continued, molecule first:

| SMILES | IC50 |
| --- | --- |
| COc1c(-c2cnc(N3C[C@@H](C)O[C@@H](C)C3)nc2)cnc2c(-c3ccc(C#N)cc3)cccc12 [Embodiment 176, 4-(3-(2-((2S,6R)-2,6-dimethylmorpholino)pyrimidin-5-yl)-4-methoxyquinolin-8-yl) benzonitrile] | ≤ 0.05 µM |
| COc1c(-c2ccc(C(=O)N3C[C@@H](C)O[C@@H](C)C3)s2)cnc2c(-c3ccc(C#N)cc3)cccc12 [Embodiment 178, 4-(3-(5-((2S,6R)-2,6-dimethylmorpholine-4-carbonyl)thiophen-2-yl)-4-methoxyquinolin-8-yl)benzonitrile] | 0.1 to 0.5 µM |
| COc1c(-c2csc(N3C[C@@H](C)O[C@@H](C)C3)n2)cnc2c(-c3ccc(C#N)cc3)cccc12 [Embodiment 179, 4-(3-(2-(2,6-dimethylmorpholin-4-yl)thiazol-4-yl)-4-methoxyquinolin-8-yl) benzonitrile] | 0.5 to 1 µM |
| CCC(=O)N1[C@H](C)CN(c2ccc(-c3cnc4c(-c5ccc(C#N)cc5)cccc4c3OC)cc2)C[C@@H]1C [Embodiment 180, 4-(3-(4-((3S, 5R)-3,5-dimethyl-4-propionylpiperazin-1-yl)phenyl)-4-methoxyquinolin-8-yl)benzonitrile] | ≤ 0.05 µM |
| COc1c(-c2ccc(N3C[C@@H](C)N(C(=O)c4ccccc4)[C@@H](C)C3)cc2)cnc2c(-c3ccc(C#N)cc3)cccc12 [Embodiment 181] | ≤ 0.05 µM |
| COC(=O)N1[C@H](C)CN(c2ccc(-c3cnc4c(-c5ccc(C#N)cc5)cccc4c3OC)cc2)C[C@@H]1C [Embodiment 182] | ≤ 0.05 µM |
| CCOC(=O)N1[C@H](C)CN(c2ccc(-c3cnc4c(-c5ccc(C#N)cc5)cccc4c3OC)cc2)C[C@@H]1C [Embodiment 183] | 0.05 to 0.1 µM |
| CCCOC(=O)N1[C@H](C)CN(c2ccc(-c3cnc4c(-c5ccc(C#N)cc5)cccc4c3OC)cc2)C[C@@H]1C [Embodiment 184] | 0.05 to 0.1 µM |
| COc1c(-c2ccc(N3C[C@@H](C)N(C(=O)C(C)(C)O)[C@@H](C)C3)cc2)cnc2c(-c3ccc(C#N)cc3)cccc12 [Embodiment 185] | 0.1 to 0.5 µM |
| COc1c(-c2ccc(N3C[C@@H](C)N(C(=O)c4ccccn4)[C@@H](C)C3)cc2)cnc2c(-c3ccc(C#N)cc3)cccc12 [Embodiment 186] | ≤ 0.05 µM |
| COc1c(-c2ccc(N3C[C@@H](C)N(C(=O)c4ncc[nH]4)[C@@H](C)C3)cc2)cnc2c(-c3ccc(C#N)cc3)cccc12 [Embodiment 187] | ≤ 0.05 µM |
| COc1c(-c2ccc(N3C[C@@H](C)N(S(C)(=O)=O)[C@@H](C)C3)nc2)cnc2c(-c3ccc(C#N)cc3)cccc12 [Embodiment 188, 4-(3-(6-(4-methylsulfonyl-3,5-dimethylpiperazin-1-yl)pyridin-3-yl)-4-methoxyquinolin-8-yl)benzonitrile] | ≤ 0.05 µM |
| COc1c(-c2ccc(N3C[C@@H](C)N(C(=O)CO)[C@@H](C)C3)nc2)cnc2c(-c3ccc(C#N)cc3)cccc12 [Embodiment 189, 4-(3-(6-(4-(2-hydroxyacetyl)-3,5-dimethylpiperazin-1-yl)pyridin-3-yl)-4-methoxyquinolin-8-yl)benzonitrile] | ≤ 0.05 µM |
| COc1c(-c2ccc(N3Cc4nnc(C(F)(F)F)n4C(C)C3)cc2)cnc2c(-c3ccc(C#N)cc3)cccc12 (stereo not shown) [Embodiment 190, 4-(4-methoxy-3-(4-(5-methyl-3-(trifluoromethyl)-5,6-dihydro-[1,2,4]triazolo[4,3-a]pyrazin-7(8H)-yl)phenyl)quinolin-8-yl)benzonitrile] | ≤ 0.05 µM |
| COc1c(-c2ccc(N3CC(C)N(C(C)=O)C(C(C)(C)O)C3)cc2)cnc2c(-c3ccc(C#N)cc3)cccc12 (stereo not shown) [Embodiment 191, 4-(3-(4-(4-acetyl-3-(2-hydroxypropan-2-yl)-5-methylpiperazin-1-yl)phenyl)-4-methoxyquinolin-8-yl)benzonitrile] | ≤ 0.05 µM |
| COc1c(-c2ccc(N3C[C@@H](C(C)(C)O)O[C@@H](C)C3)cc2)cnc2c(-c3ccc(C#N)cc3)cccc12 [Embodiment 192, 4-(3-(4-((2S, 6S)-2-(2-hydroxypropan-2-yl)-6-methylmorpholino)phenyl)-4-methoxyquinolin-8-yl)benzonitrile] | ≤ 0.05 µM |
| COc1c(-c2ccc(N3C[C@@H](C)N(C(=O)C(C)F)[C@@H](C)C3)nc2)cnc2c(-c3ccc(C#N)cc3)cccc12 (stereo partly drawn) [Embodiment 193, 4-(3-(6-((3S, 5R)-4-(2-fluoropropanoyl)-3,5-dimethylpiperazin-1-yl)pyridin-3-yl)-4-methoxyquinolin-8-yl)benzonitrile] | 0.1 to 0.5 µM |
| COc1c(-c2ccc(N3C[C@@H](C)N(C(=O)C(C)(F)F)[C@@H](C)C3)nc2)cnc2c(-c3ccc(C#N)cc3)cccc12 [Embodiment 194] | ≤ 0.05 µM |
| COc1c(-c2ccc(N3C[C@@H](C)N(C(=O)C(C)O)[C@@H](C)C3)nc2)cnc2c(-c3ccc(C#N)cc3)cccc12 (stereo partly shown) [Embodiment 195] | 0.05 to 0.1 µM |
| COC(=O)N1[C@H](C)CN(c2ccc(-c3cnc4c(-c5ccc(C#N)cc5)cccc4c3OC)cn2)C[C@@H]1C [Embodiment 196] | 0.1 to 0.5 µM |
| COc1c(-c2ccc(N3C[C@@H](C)N(C(=O)CC(F)(F)F)[C@@H](C)C3)nc2)cnc2c(-c3ccc(C#N)cc3)cccc12 [Embodiment 197] | 0.5 to 1 µM |
| COc1c(-c2ccc(N3C[C@@H](C)N(C(=O)CN)[C@@H](C)C3)nc2)cnc2c(-c3ccc(C#N)cc3)cccc12 [Embodiment 198] | 0.05 to 0.1 µM |
| COc1c(-c2ccc(N3C[C@@H](C)N(C(=O)C(C)N)[C@@H](C)C3)nc2)cnc2c(-c3ccc(C#N)cc3)cccc12 (stereo partly shown) [Embodiment 199] | 0.1 to 0.5 µM |
| COc1c(-c2ccc(N3C[C@@H](C)N(C(=O)c4cccnc4)[C@@H](C)C3)cc2)cnc2c(-c3ccc(C#N)cc3)cccc12 [Embodiment 200] | ≤ 0.05 µM |
| COc1c(-c2ccc(N3C[C@@H](C)N(C(=O)c4ccncc4)[C@@H](C)C3)cc2)cnc2c(-c3ccc(C#N)cc3)cccc12 [Embodiment 201] | ≤ 0.05 µM |
| CCC(=O)N1[C@H](C)CN(c2ccc(-c3cnc4c(-c5ccc(C#N)cc5C)cccc4c3OC)cn2)C[C@@H]1C [Embodiment 202] | ≤ 0.05 µM |
| CCC(=O)N1[C@@H]2CC[C@H]1CN(c1ccc(-c3cnc4c(-c5ccc(C#N)cc5)cccc4c3OC)cn1)C2 [Embodiment 205, 4-(4-methoxy-3-(6-(8-propionyl-3,8-diazabicyclo[3.2.1]octan-3-yl)pyridin-3-yl)quinolin-8-yl)benzonitrile] | 0.05 to 0.1 µM |
